Data: US10988478B1, “Pyrazolo[1,5a]pyrimidine derivatives as IRAK4 modulators” (Genentech, Inc., priority 2015, dated 2021)

molecular target: human IRAK4 (Homo sapiens (Human), UniProt Q9NWZ3); assay: IRAK4 kinase inhibition, Transcreener fluorescence polarization ADP assay; type: biochemical; conditions: recombinant full-length His6-IRAK4; 125 uM ATP; 90 min; Ki computed using ATP Km 642 uM
Method: Compounds were assayed for inhibition of human IRAK4 and IRAK1 catalytic activity using recombinant enzyme produced from insect cells. Full-length IRAK4 protein, carrying an N-terminal His6-Tag, was obtained from Life Technologies (Carlsbad, Calif., USA). The IRAK1 construct was produced internally and was comprised of IRAK1 residues Arg194 to Ser712, preceded by an NH2-terminal His6 tag and the coding sequence for glutathione-S-transferase.

Chain of human IRAK4 (Q9NWZ3 whole entry, the tested form may be a part): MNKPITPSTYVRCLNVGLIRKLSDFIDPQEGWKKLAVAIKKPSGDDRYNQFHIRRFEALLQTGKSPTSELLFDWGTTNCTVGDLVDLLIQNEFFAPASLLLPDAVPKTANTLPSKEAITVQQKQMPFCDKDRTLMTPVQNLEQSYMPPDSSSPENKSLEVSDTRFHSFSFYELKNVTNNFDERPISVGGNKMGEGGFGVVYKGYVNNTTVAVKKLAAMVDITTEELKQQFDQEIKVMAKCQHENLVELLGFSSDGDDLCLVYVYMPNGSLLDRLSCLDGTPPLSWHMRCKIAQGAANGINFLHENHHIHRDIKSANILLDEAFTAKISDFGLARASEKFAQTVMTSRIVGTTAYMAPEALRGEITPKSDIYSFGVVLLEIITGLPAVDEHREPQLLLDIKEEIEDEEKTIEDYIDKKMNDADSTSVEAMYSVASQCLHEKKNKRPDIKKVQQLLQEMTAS

**Q.** `N[C@H]1CO[C@@H](CN2Cc3cc(NC(=O)c4cnn5cccnc45)c(N4CCOCC4)cc3C2=O)OC1` [Example 449, N-(2-(((2R,5R)-5-amino-1,3-dioxan-2-yl)methyl)-6-morpholino-1-oxoisoindolin-5-yl)pyrazolo[1,5-a]pyrimidine-3-carboxamide] was tested. Which Ki did it give?
**A.** 80 nM

**Q.** How did the Ki turn out when `COc1cc2c(cc1NC(=O)c1cnn3ccc(N[C@@H]4CCCC[C@@H]4N)nc13)CC(C)(C)O2` [Example 451, 5-[[(1R,2S)-2-aminocyclohexyl]amino]-N-(6-methoxy-2,2-dimethyl-3H-benzofuran-5-yl)pyrazolo[1,5-a]pyrimidine-3-carboxamide] was run?
**A.** 4.7 nM

**Q.** With `CC1(C)Cc2cc(NC(=O)c3cnn4cccnc34)c(C(N)=O)cc2O1` [Example 452, N-(6-carbamoyl-2,2-dimethyl-3H-benzofuran-5-yl)pyrazolo[1,5-a]pyrimidine-3-carboxamide] as the compound, how does the Ki read?
**A.** 150 nM

**Q.** For `CCN1CCN(c2cc3c(cc2NC(=O)c2cnn4cccnc24)CC(C)(C)O3)CC1` [Example 453, N-(6-(4-ethylpiperazin-1-yl)-2,2-dimethyl-2,3-dihydrobenzofuran-5-yl)pyrazolo[1,5-a]pyrimidine-3-carboxamide], which Ki is on record?
**A.** 44 nM

**Q.** `CSCCN1CCN(c2cc3c(cc2NC(=O)c2cnn4cccnc24)CC(C)(C)O3)CC1` [Example 454, N-(2,2-dimethyl-6-(4-(2-(methylthio)ethyl)piperazin-1-yl)-2,3-dihydrobenzofuran-5-yl)pyrazolo[1,5-a]pyrimidine-3-carboxamide] was tested. Which Ki did it give?
**A.** 8.8 nM

**Q.** Which Ki does the source give for `CC1(C)Cc2cc(NC(=O)c3cnn4cccnc34)c(N3CCN(CCC(N)=O)CC3)cc2O1` [Example 455, N-(6-(4-(3-amino-3-oxopropyl)piperazin-1-yl)-2,2-dimethyl-2,3-dihydrobenzofuran-5-yl)pyrazolo[1,5-a]pyrimidine-3-carboxamide] here?
**A.** 5.8 nM

**Q.** `CC1(C)Cc2cc(NC(=O)c3cnn4cccnc34)c(N3CCN(CC#N)CC3)cc2O1` [Example 456, N-(6-(4-(cyanomethyl)piperazin-1-yl)-2,2-dimethyl-2,3-dihydrobenzofuran-5-yl)pyrazolo[1,5-a]pyrimidine-3-carboxamide] was tested. Which Ki did it give?
**A.** 2.6 nM

**Q.** `CC1(C)Cc2cc(NC(=O)c3cnn4cccnc34)c(N3CCN(CCC#N)CC3)cc2O1` [Example 457, N-(6-(4-(2-cyanoethyl)piperazin-1-yl)-2,2-dimethyl-2,3-dihydrobenzofuran-5-yl)pyrazolo[1,5-a]pyrimidine-3-carboxamide] was tested. Which Ki did it give?
**A.** 4.4 nM

**Q.** For `CC1(C)Cc2cc(NC(=O)c3cnn4cccnc34)c(N3CCN(CC4CC4)CC3)cc2O1` [Example 458, N-(6-(4-(cyclopropylmethyl)piperazin-1-yl)-2,2-dimethyl-2,3-dihydrobenzofuran-5-yl)pyrazolo[1,5-a]pyrimidine-3-carboxamide], which Ki is on record?
**A.** 37 nM

**Q.** For `Cc1noc(CN2CCN(c3cc4c(cc3NC(=O)c3cnn5cccnc35)CC(C)(C)O4)CC2)n1` [Example 459, N-(2,2-dimethyl-6-(4-((3-methyl-1,2,4-oxadiazol-5-yl)methyl)piperazin-1-yl)-2,3-dihydrobenzofuran-5-yl)pyrazolo[1,5-a]pyrimidine-3-carboxamide], which Ki is on record?
**A.** 16 nM

**Q.** `Cn1cc(CN2CCN(c3cc4c(cc3NC(=O)c3cnn5cccnc35)CC(C)(C)O4)CC2)cn1` [Example 460, N-(2,2-dimethyl-6-(4-((1-methyl-1H-pyrazol-4-yl)methyl)piperazin-1-yl)-2,3-dihydrobenzofuran-5-yl)pyrazolo[1,5-a]pyrimidine-3-carboxamide] was tested. Which Ki did it give?
**A.** 5.9 nM

**Q.** For `Cc1nc(CN2CCN(c3cc4c(cc3NC(=O)c3cnn5cccnc35)CC(C)(C)O4)CC2)no1` [Example 461, N-(2,2-dimethyl-6-(4-((5-methyl-1,2,4-oxadiazol-3-yl)methyl)piperazin-1-yl)-2,3-dihydrobenzofuran-5-yl)pyrazolo[1,5-a]pyrimidine-3-carboxamide], which Ki is on record?
**A.** 29 nM

**Q.** How did the Ki turn out when `CC1(C)Cc2cc(NC(=O)c3cnn4cccnc34)c(N3CCN(CCn4cccn4)CC3)cc2O1` [Example 462, N-(6-(4-(2-(1H-pyrazol-1-yl)ethyl)piperazin-1-yl)-2,2-dimethyl-2,3-dihydrobenzofuran-5-yl)pyrazolo[1,5-a]pyrimidine-3-carboxamide] was run?
**A.** 6.5 nM

**Q.** For `Cc1nnc(CN2CCN(c3cc4c(cc3NC(=O)c3cnn5cccnc35)CC(C)(C)O4)CC2)o1` [Example 463, N-(2,2-dimethyl-6-(4-((5-methyl-1,3,4-oxadiazol-2-yl)methyl)piperazin-1-yl)-2,3-dihydrobenzofuran-5-yl)pyrazolo[1,5-a]pyrimidine-3-carboxamide], which Ki is on record?
**A.** 25 nM

**Q.** `CC1(C)Cc2cc(NC(=O)c3cnn4cccnc34)c(N3CCN(CC4CCOCC4)CC3)cc2O1` [Example 464, N-(2,2-dimethyl-6-(4-((tetrahydro-2H-pyran-4-yl)methyl)piperazin-1-yl)-2,3-dihydrobenzofuran-5-yl)pyrazolo[1,5-a]pyrimidine-3-carboxamide] was tested. Which Ki did it give?
**A.** 67 nM

**Q.** Which Ki does the source give for `COCCCN1CCN(c2cc3c(cc2NC(=O)c2cnn4cccnc24)CC(C)(C)O3)CC1` [Example 465, N-(6-(4-(3-methoxypropyl)piperazin-1-yl)-2,2-dimethyl-2,3-dihydrobenzofuran-5-yl)pyrazolo[1,5-a]pyrimidine-3-carboxamide] here?
**A.** 38 nM

**Q.** For `CC1(C)Cc2cc(NC(=O)c3cnn4cccnc34)c(N3CCN(CC4CCC4)CC3)cc2O1` [Example 466, N-(6-(4-(cyclobutylmethyl)piperazin-1-yl)-2,2-dimethyl-2,3-dihydrobenzofuran-5-yl)pyrazolo[1,5-a]pyrimidine-3-carboxamide], which Ki is on record?
**A.** 99 nM

**Q.** `CC1(C)Cc2cc(NC(=O)c3cnn4cccnc34)c(N3CCN(C4CCNC4=O)CC3)cc2O1` (centres unmarked) [Example 467, N-(2,2-dimethyl-6-(4-(2-oxopyrrolidin-3-yl)piperazin-1-yl)-2,3-dihydrobenzofuran-5-yl)pyrazolo[1,5-a]pyrimidine-3-carboxamide] was tested. Which Ki did it give?
**A.** 13 nM

**Q.** How did the Ki turn out when `CC1(C)Cc2cc(NC(=O)c3cnn4cccnc34)c(N3CCN(CC4CCC(=O)N4)CC3)cc2O1` (centres unmarked) [Example 468, N-(2,2-dimethyl-6-(4-((5-oxopyrrolidin-2-yl)methyl)piperazin-1-yl)-2,3-dihydrobenzofuran-5-yl)pyrazolo[1,5-a]pyrimidine-3-carboxamide] was run?
**A.** 5.1 nM

**Q.** Which Ki does the source give for `CC1(C)Cc2cc(NC(=O)c3cnn4cccnc34)c(N3CCN(CC(O)CO)CC3)cc2O1` (centres unmarked) [Example 469, N-(6-(4-(2,3-dihydroxypropyl)piperazin-1-yl)-2,2-dimethyl-2,3-dihydrobenzofuran-5-yl)pyrazolo[1,5-a]pyrimidine-3-carboxamide] here?
**A.** 8.8 nM

**Q.** Which Ki does the source give for `CC1(C)Cc2cc(NC(=O)c3cnn4cccnc34)c(N3CCN(CCN4CCCC4=O)CC3)cc2O1` [Example 470, N-(2,2-dimethyl-6-(4-(2-(2-oxopyrrolidin-1-yl)ethyl)piperazin-1-yl)-2,3-dihydrobenzofuran-5-yl)pyrazolo[1,5-a]pyrimidine-3-carboxamide] here?
**A.** 12 nM

**Q.** Which Ki does the source give for `CC1(C)Cc2cc(NC(=O)c3cnn4cc(CO)cnc34)c(N3CCOCC3)cc2O1` [Example 471, N-(2,2-dimethyl-6-morpholino-3H-benzofuran-5-yl)-6-(hydroxymethyl)pyrazolo[1,5-a]pyrimidine-3-carboxamide] here?
**A.** 6.5 nM

**Q.** For `C[C@H](C(N)=O)N1CCN(c2cc3c(cc2NC(=O)c2cnn4cccnc24)CC(C)(C)O3)CC1` [Example 472, N-[6-[4-[(1R)-2-amino-1-methyl-2-oxo-ethyl]piperazin-1-yl]-2,2-dimethyl-3H-benzofuran-5-yl]pyrazolo[1,5-a]pyrimidine-3-carboxamide], which Ki is on record?
**A.** 2.5 nM
